# Tests used:
# Mycobacterium abscessus = assay: MIC by broth microdilution in CAMHB, clinical isolates; format: cell-based
# Mycobacterium chelonae = assay: as above; format: cell-based
# Mycobacterium fortuitum = assay: as above; format: cell-based
# [1] = system: rapid-growing mycobacteria (RGM) isolates; assay: MIC (CLSI broth dilution), all RGM isolates; format: cell-based, nontuberculous mycobacteria; settings: all 50 RGM isolates
# M. abscessus complex = assay: MIC (CLSI broth dilution), RGM isolates; format: cell-based
# M. chelonae = assay: MIC (CLSI broth dilution), RGM isolates; format: cell-based
# M. fortuitum group = assay: MIC (CLSI broth dilution), RGM isolates; format: cell-based
# M. immunogenum group = assay: MIC (CLSI broth dilution), RGM isolates; format: cell-based; settings: M. immunogenum
# M. mucogenium group = assay: MIC (CLSI broth dilution), RGM isolates; format: cell-based
# M. smegmatis group = assay: MIC (CLSI broth dilution), RGM isolates; format: cell-based
# M. arupense = assay: MIC (CLSI broth dilution), slow-growing NTM isolates; format: cell-based; settings: isolate 11, Other
# [2] = 24 clinical isolates (tigecycline: subset N=14)
compound,measurement,setting,value
"NCC[C@H](O)C(=O)N[C@@H]1C[C@H](N)[C@@H](O[C@H]2O[C@H](CN)[C@@H](O)[C@H](O)[C@H]2O)[C@H](O)[C@H]1O[C@H]1O[C@H](CO)[C@@H](O)[C@H](N)[C@H]1O [Amikacin, amikacin]",MIC50,Mycobacterium abscessus; [2],2 µg/mL
same,MIC90,Mycobacterium abscessus; [2],8 µg/mL
same,MIC,"Mycobacterium abscessus; isolate No. 1, BB2",8 µg/mL
same,MIC,"Mycobacterium abscessus; isolate No. 2, BB4",8 µg/mL
same,MIC,"Mycobacterium abscessus; isolate No. 3, 5922",2 µg/mL
same,MIC,"Mycobacterium abscessus; isolate No. 4, BB3",2 µg/mL
same,MIC,"Mycobacterium abscessus; isolate No. 5, BB6",4 µg/mL
same,MIC,"Mycobacterium abscessus; isolate No. 6, 5908",2 µg/mL
same,MIC,"Mycobacterium abscessus; isolate No. 7, BB7",0.5 µg/mL
same,MIC,"Mycobacterium abscessus; isolate No. 8, 6031",0.5 µg/mL
same,MIC,"Mycobacterium abscessus; isolate No. 9, 5785",1 µg/mL
same,MIC,"Mycobacterium abscessus; isolate No. 10, BB8",2 µg/mL
same,MIC,"Mycobacterium abscessus; isolate No. 11, 6111",2 µg/mL
same,MIC,"Mycobacterium abscessus; isolate No. 12, 6005",4 µg/mL
same,MIC,"Mycobacterium abscessus; isolate No. 13, 5605",2 µg/mL
same,MIC,"Mycobacterium abscessus; isolate No. 14, 5931",0.5 µg/mL
same,MIC,"Mycobacterium abscessus; isolate No. 15, BB1",2 µg/mL
same,MIC,"Mycobacterium abscessus; isolate No. 16, BB5",8 µg/mL
same,MIC,"Mycobacterium abscessus; isolate No. 17, 5812",4 µg/mL
same,MIC,"Mycobacterium abscessus; isolate No. 18, 5901",2 µg/mL
same,MIC,"Mycobacterium abscessus; isolate No. 19, 5960",1 µg/mL
same,MIC,"Mycobacterium abscessus; isolate No. 20, 6142",4 µg/mL
same,MIC,"Mycobacterium abscessus; isolate No. 21, 5922",2 µg/mL
same,MIC,"Mycobacterium abscessus; isolate No. 22, LT 949",8 µg/mL
same,MIC,"Mycobacterium abscessus; isolate No. 23, 6025",8 µg/mL
same,MIC,"Mycobacterium abscessus; isolate No. 24, 6153",8 µg/mL
same,MIC50,Mycobacterium chelonae; 22 clinical isolates,4 µg/mL
same,MIC90,Mycobacterium chelonae; 22 clinical isolates,8 µg/mL
same,MIC,"Mycobacterium chelonae; isolate No. 1, MC 7323",4 µg/mL
same,MIC,"Mycobacterium chelonae; isolate No. 2, MC 7534",8 µg/mL
same,MIC,"Mycobacterium chelonae; isolate No. 3, MC 7368",16 µg/mL
same,MIC,"Mycobacterium chelonae; isolate No. 4, MC 7514",8 µg/mL
same,MIC,"Mycobacterium chelonae; isolate No. 5, MC 7584",4 µg/mL
same,MIC,"Mycobacterium chelonae; isolate No. 6, MC 7192",4 µg/mL
same,MIC,"Mycobacterium chelonae; isolate No. 7, MC 7466",2 µg/mL
same,MIC,"Mycobacterium chelonae; isolate No. 8, MC 7533",4 µg/mL
same,MIC,"Mycobacterium chelonae; isolate No. 9, MC 7579",4 µg/mL
same,MIC,"Mycobacterium chelonae; isolate No. 10, MC 7614",8 µg/mL
same,MIC,"Mycobacterium chelonae; isolate No. 11, MC 7414",4 µg/mL
same,MIC,"Mycobacterium chelonae; isolate No. 12, MC 7313",2 µg/mL
same,MIC,"Mycobacterium chelonae; isolate No. 13, MC 7281",8 µg/mL
same,MIC,"Mycobacterium chelonae; isolate No. 14, MC 7328",8 µg/mL
same,MIC,"Mycobacterium chelonae; isolate No. 15, MC 7294",8 µg/mL
same,MIC,"Mycobacterium chelonae; isolate No. 16, MC 14-S-03",4 µg/mL
same,MIC,"Mycobacterium chelonae; isolate No. 17, MC 14-S-04",4 µg/mL
same,MIC,"Mycobacterium chelonae; isolate No. 18, MC 14-S-05",8 µg/mL
same,MIC,"Mycobacterium chelonae; isolate No. 19, MC 14-S-06",8 µg/mL
same,MIC,"Mycobacterium chelonae; isolate No. 20, MC 14-S-07",4 µg/mL
same,MIC,"Mycobacterium chelonae; isolate No. 21, MC 35757",2 µg/mL
same,MIC,"Mycobacterium chelonae; isolate No. 22, MC 7302",4 µg/mL
same,MIC50,Mycobacterium fortuitum; 20 clinical isolates,0.5 µg/mL
same,MIC90,Mycobacterium fortuitum; 20 clinical isolates,4 µg/mL
same,MIC,"Mycobacterium fortuitum; isolate No. 1, 3349",8 µg/mL
same,MIC,"Mycobacterium fortuitum; isolate No. 2, 3499",0.25 µg/mL
same,MIC,"Mycobacterium fortuitum; isolate No. 3, 2797",2 µg/mL
same,MIC,"Mycobacterium fortuitum; isolate No. 4, 32",1 µg/mL
same,MIC,"Mycobacterium fortuitum; isolate No. 5, 33",2 µg/mL
same,MIC,"Mycobacterium fortuitum; isolate No. 6, 3489",1 µg/mL
same,MIC,"Mycobacterium fortuitum; isolate No. 7, 3491",1 µg/mL
same,MIC,"Mycobacterium fortuitum; isolate No. 8, 54",0.5 µg/mL
same,MIC,"Mycobacterium fortuitum; isolate No. 9, 38",0.5 µg/mL
same,MIC,"Mycobacterium fortuitum; isolate No. 10, 36",1 µg/mL
same,MIC,"Mycobacterium fortuitum; isolate No. 11, 3480",0.5 µg/mL
same,MIC,"Mycobacterium fortuitum; isolate No. 12, 3126",0.5 µg/mL
same,MIC,"Mycobacterium fortuitum; isolate No. 13, 3579",1 µg/mL
same,MIC,"Mycobacterium fortuitum; isolate No. 14, 7484",16 µg/mL
same,MIC,"Mycobacterium fortuitum; isolate No. 15, 3488",0.5 µg/mL
same,MIC,"Mycobacterium fortuitum; isolate No. 16, 3276",0.5 µg/mL
same,MIC,"Mycobacterium fortuitum; isolate No. 17, 3442",0.5 µg/mL
same,MIC,"Mycobacterium fortuitum; isolate No. 18, 3316",0.125 µg/mL
same,MIC,"Mycobacterium fortuitum; isolate No. 19, 3490",0.5 µg/mL
same,MIC,"Mycobacterium fortuitum; isolate No. 20, 2491",4 µg/mL
same,MIC50,[1],4 µg/mL
same,MIC90,[1],16 µg/mL
same,MIC,"M. abscessus complex; isolate 1, M. abscessus complex, erm gene type MAB30",8 µg/mL
same,MIC,"M. abscessus complex; isolate 2, M. abscessus complex, erm gene type MAB30",4 µg/mL
same,MIC,"M. abscessus complex; isolate 3, M. abscessus complex, erm gene type MAB30",16 µg/mL
same,MIC,"M. abscessus complex; isolate 4, M. abscessus complex, erm gene type massiliense",8 µg/mL
same,MIC,"M. abscessus complex; isolate 5, M. abscessus complex, erm gene type massiliense/subsp. abs hybrid",32 µg/mL
same,MIC,"M. abscessus complex; isolate 6, M. abscessus complex, erm gene type Type 1 abscessus",8 µg/mL
same,MIC,"M. abscessus complex; isolate 7, M. abscessus complex, erm gene type Type 1 abscessus",8 µg/mL
same,MIC,"M. abscessus complex; isolate 8, M. abscessus complex, erm gene type Type 1 abscessus",8 µg/mL
same,MIC,"M. abscessus complex; isolate 9, M. abscessus complex, erm gene type Type 1 abscessus",>64 µg/mL
same,MIC,"M. abscessus complex; isolate 10, M. abscessus complex, erm gene type Type 1 abscessus",16 µg/mL
same,MIC,"M. abscessus complex; isolate 11, M. abscessus complex, erm gene type Type 6 abscessus",16 µg/mL
same,MIC,"M. abscessus complex; isolate 12, M. abscessus complex, erm gene type Type 6 abscessus",8 µg/mL
same,MIC,"M. abscessus complex; isolate 13, M. abscessus complex, erm gene type Type 6 abscessus",4 µg/mL
same,MIC,"M. abscessus complex; isolate 14, M. abscessus complex, erm gene type Type 6 abscessus",16 µg/mL
same,MIC,"M. abscessus complex; isolate 15, M. abscessus complex, erm gene type Type 7 abscessus",8 µg/mL
same,MIC,"M. abscessus complex; isolate 16, M. abscessus complex, erm gene type Type 7 abscessus",16 µg/mL
same,MIC,"M. abscessus complex; isolate 17, M. abscessus complex, erm gene type Type 8 abscessus",4 µg/mL
same,MIC,"M. chelonae; isolate 18, M. chelonae",8 µg/mL
same,MIC,"M. chelonae; isolate 19, M. chelonae",16 µg/mL
same,MIC,"M. chelonae; isolate 20, M. chelonae",16 µg/mL
same,MIC,"M. chelonae; isolate 21, M. chelonae",16 µg/mL
same,MIC,"M. chelonae; isolate 22, M. chelonae",16 µg/mL
same,MIC,"M. fortuitum group; isolate 23, M. fortuitum group, M. fortuitum",≤2 µg/mL
same,MIC,"M. fortuitum group; isolate 24, M. fortuitum group, M. fortuitum",≤2 µg/mL
same,MIC,"M. fortuitum group; isolate 25, M. fortuitum group, M. fortuitum",≤2 µg/mL
same,MIC,"M. fortuitum group; isolate 26, M. fortuitum group, M. porcinum",≤2 µg/mL
same,MIC,"M. fortuitum group; isolate 27, M. fortuitum group, M. porcinum",≤2 µg/mL
same,MIC,"M. fortuitum group; isolate 28, M. fortuitum group, M. porcinum/M. boenickei",≤2 µg/mL
same,MIC,"M. fortuitum group; isolate 29, M. fortuitum group, M. porcinum/M. boenickei",≤2 µg/mL
same,MIC,"M. fortuitum group; isolate 30, M. fortuitum group, M. porcinum/M. boenickei",≤2 µg/mL
same,MIC,"M. fortuitum group; isolate 31, M. fortuitum group, M. senegalense",≤2 µg/mL
same,MIC,"M. fortuitum group; isolate 32, M. fortuitum group, M. senegalense",≤2 µg/mL
same,MIC,"M. fortuitum group; isolate 33, M. fortuitum group, M. senegalense",≤2 µg/mL
same,MIC,"M. fortuitum group; isolate 34, M. fortuitum group, M. senegalense",≤2 µg/mL
same,MIC,"M. immunogenum group; isolate 35, M. immunogenum group",16 µg/mL
same,MIC,"M. immunogenum group; isolate 36, M. immunogenum group",4 µg/mL
same,MIC,"M. immunogenum group; isolate 37, M. immunogenum group",8 µg/mL
same,MIC,"M. immunogenum group; isolate 38, M. immunogenum group",8 µg/mL
same,MIC,"M. mucogenium group; isolate 39, M. mucogenicum group, M. mucogenicum",≤2 µg/mL
same,MIC,"M. mucogenium group; isolate 40, M. mucogenicum group, M. mucogenicum",≤2 µg/mL
same,MIC,"M. mucogenium group; isolate 41, M. mucogenicum group, M. mucogenicum",≤2 µg/mL
same,MIC,"M. mucogenium group; isolate 42, M. mucogenicum group, M. mucogenicum",≤2 µg/mL
same,MIC,"M. mucogenium group; isolate 43, M. mucogenicum group, M. phocaicum",≤2 µg/mL
same,MIC,"M. mucogenium group; isolate 44, M. mucogenicum group, M. phocaicum",≤2 µg/mL
same,MIC,"M. mucogenium group; isolate 45, M. mucogenicum group, M. phocaicum",≤2 µg/mL
same,MIC,"M. mucogenium group; isolate 46, M. mucogenicum group, M. phocaicum",≤2 µg/mL
same,MIC,"M. mucogenium group; isolate 47, M. mucogenicum group, M. phocaicum",≤2 µg/mL
same,MIC,"M. mucogenium group; isolate 48, M. mucogenicum group, M. phocaicum",≤2 µg/mL
same,MIC,"M. smegmatis group; isolate 49, M. smegmatis group, M. goodii",≤2 µg/mL
same,MIC,"M. smegmatis group; isolate 50, M. smegmatis group, M. wolinskyi",≤2 µg/mL
same,MIC,M. arupense,8 µg/mL

# Reference: patent publication US20250332178A1, “METHODS OF TREATING MYCOBACTERIAL INFECTIONS USING TETRACYCLINE COMPOUNDS” (priority 2018, published 2025)
